Experimental data: BindingDB's records for patent US20250171467 (Merck Sharp & Dohme, 2025)
pEC50: −log10 of the molar value.

Biological target: T1, Ceramide glucosyltransferase (Homo sapiens, UniProt Q16739)
T1 sequence (Q16739 whole entry): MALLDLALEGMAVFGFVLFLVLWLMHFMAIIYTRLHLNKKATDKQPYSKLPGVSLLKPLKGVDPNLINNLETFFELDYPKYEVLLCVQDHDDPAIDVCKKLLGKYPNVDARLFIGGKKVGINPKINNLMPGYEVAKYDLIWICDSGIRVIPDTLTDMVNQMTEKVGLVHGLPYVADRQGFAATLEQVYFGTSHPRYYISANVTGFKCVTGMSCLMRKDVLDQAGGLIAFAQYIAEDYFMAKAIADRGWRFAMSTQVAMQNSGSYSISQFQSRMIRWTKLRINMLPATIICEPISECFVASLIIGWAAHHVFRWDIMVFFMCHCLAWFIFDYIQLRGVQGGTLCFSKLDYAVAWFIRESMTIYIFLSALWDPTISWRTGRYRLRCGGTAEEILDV
Assay: UDP-Glo Glucosylceramide Synthase Biochemical Assay
Method: An aliquot of GCS enzyme (1.5 μg crude golgi preparation, total protein) and titrated test compound were aliquoted to each well and incubated for 30 minutes at room temperature. […] An equivalent volume of substrate mixture was then added to each well. Following a 20 h incubation at room temperature to allow for GCS turnover of substrate, an equal volume of UDP detection reagent (Promega) was added to each well and incubated for an additional 75 minutes at room temperature to simultaneously convert the accumulated UDP product into ATP and generate light in a luciferase reaction. The generated light was detected using a luminometer.

Molecule `COc1ccc(-n2nc(C(=O)N3CCCN(CCF)CC3)c3c2CCOC3)cc1` [US20250171467, Compound 11] has a pEC50 of 4.92.
